Data from US7772198B2, “CFTR channel modulators” (Centre National de la Recherche Scientifique, priority 2003, dated 2010).
Where two headings read alike, the source gives them in different places.

Key:
[1] = pKa evaluation in aqueous solution; assay type: physicochemical
Description: As an example, the pKa of this compound was evaluated at 4. This means that in an aqueous solution with a pH of 7, this compound is mainly in zwitterionic form, as in the case of highly diluted solutions such as those used for biological tests.

[2] = molecular target: T1, wild-type CFTR receptor (CHO-WT cells) (Homo sapiens, UniProt P13569); assay: 125I iodide efflux, CHO cells overexpressing wild-type CFTR (CHO-WT); assay type: cell-based; settings: for IC50: 5 μM Fsk; for Effect: + activator, − inhibitor, compound 1 μM, 100% = activation with 1 μM forskolin; for EC50: activators, 1 μM forskolin; for effect on wild-type receptors: summary of Table II
T1 construct: expressed in transfected cells; host or cells: CHO (Chinese Hamster Ovary) cells, stably transfected
T1 sequence (P13569 whole entry): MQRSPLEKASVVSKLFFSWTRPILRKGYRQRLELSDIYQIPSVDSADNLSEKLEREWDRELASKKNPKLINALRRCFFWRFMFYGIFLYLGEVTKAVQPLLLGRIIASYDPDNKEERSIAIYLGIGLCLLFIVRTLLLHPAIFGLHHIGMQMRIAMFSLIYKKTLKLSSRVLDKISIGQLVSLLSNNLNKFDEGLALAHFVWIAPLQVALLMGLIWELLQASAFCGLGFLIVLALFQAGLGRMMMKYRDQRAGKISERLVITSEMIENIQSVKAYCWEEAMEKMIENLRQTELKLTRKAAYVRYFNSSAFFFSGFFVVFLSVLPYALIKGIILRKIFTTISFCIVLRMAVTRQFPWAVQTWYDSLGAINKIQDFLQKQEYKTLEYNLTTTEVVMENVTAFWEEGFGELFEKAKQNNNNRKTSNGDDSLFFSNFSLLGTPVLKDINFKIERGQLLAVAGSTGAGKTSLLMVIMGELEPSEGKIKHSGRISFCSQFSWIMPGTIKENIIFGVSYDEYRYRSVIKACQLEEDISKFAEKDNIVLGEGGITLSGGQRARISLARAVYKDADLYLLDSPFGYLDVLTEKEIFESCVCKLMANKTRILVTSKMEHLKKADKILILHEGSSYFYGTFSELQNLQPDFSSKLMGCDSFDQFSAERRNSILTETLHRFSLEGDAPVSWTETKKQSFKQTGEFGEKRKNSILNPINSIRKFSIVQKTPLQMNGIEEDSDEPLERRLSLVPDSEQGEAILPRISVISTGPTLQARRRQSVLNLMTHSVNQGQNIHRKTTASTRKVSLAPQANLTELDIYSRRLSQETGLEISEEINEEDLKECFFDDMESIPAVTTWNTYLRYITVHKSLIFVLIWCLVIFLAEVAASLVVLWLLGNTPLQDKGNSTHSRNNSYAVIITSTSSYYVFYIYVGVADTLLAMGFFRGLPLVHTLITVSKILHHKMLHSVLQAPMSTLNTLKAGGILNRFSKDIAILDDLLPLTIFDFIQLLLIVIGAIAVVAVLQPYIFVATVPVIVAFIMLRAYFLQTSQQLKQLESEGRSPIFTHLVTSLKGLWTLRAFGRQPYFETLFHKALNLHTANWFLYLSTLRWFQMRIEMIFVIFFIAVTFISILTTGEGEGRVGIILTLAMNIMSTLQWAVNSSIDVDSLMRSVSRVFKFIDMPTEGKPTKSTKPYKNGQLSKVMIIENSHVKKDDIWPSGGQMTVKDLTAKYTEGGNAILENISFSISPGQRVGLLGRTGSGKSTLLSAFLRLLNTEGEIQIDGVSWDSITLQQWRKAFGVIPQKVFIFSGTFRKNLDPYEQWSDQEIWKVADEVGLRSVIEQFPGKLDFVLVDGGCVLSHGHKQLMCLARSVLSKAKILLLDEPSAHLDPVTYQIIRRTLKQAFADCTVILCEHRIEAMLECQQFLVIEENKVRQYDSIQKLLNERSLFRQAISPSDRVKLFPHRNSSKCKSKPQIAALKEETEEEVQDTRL

[3] = molecular target: T2, G551D-CFTR (CHO-G551D cells) (Homo sapiens, UniProt P13569, G551D); assay: 125I iodide efflux, CHO cells expressing G551D mutated CFTR (CHO-G551D); assay type: cell-based; settings: for IC50: 10 μM Fsk + 30 μM genistein; for effect on G551D mutated receptors: summary of Table II
T2 construct: expressed in transfected cells; host or cells: CHO (Chinese Hamster Ovary) cells, stably transfected
T2 sequence (P13569 whole entry G551D): as the sequence (P13569 whole entry) above, with G551D counted along it

[4] = molecular target: wild-type CFTR protein (Calu-3 cells) (Homo sapiens, UniProt P13569); assay: iodide efflux, Calu-3 human lung cells naturally expressing wild-type CFTR
wild-type CFTR protein (Calu-3 cells), sequence (P13569 whole entry): as the sequence (P13569 whole entry) above

[5] = molecular target: mutated F508-CFTR (CF15 cells) (Homo sapiens, UniProt P13569, DEL508-508); assay: iodide efflux, CF15 human nasal epithelial cells expressing mutated F508-CFTR; settings: results not shown
mutated F508-CFTR (CF15 cells), sequence (P13569 with tags, fused parts or gaps DEL508-508): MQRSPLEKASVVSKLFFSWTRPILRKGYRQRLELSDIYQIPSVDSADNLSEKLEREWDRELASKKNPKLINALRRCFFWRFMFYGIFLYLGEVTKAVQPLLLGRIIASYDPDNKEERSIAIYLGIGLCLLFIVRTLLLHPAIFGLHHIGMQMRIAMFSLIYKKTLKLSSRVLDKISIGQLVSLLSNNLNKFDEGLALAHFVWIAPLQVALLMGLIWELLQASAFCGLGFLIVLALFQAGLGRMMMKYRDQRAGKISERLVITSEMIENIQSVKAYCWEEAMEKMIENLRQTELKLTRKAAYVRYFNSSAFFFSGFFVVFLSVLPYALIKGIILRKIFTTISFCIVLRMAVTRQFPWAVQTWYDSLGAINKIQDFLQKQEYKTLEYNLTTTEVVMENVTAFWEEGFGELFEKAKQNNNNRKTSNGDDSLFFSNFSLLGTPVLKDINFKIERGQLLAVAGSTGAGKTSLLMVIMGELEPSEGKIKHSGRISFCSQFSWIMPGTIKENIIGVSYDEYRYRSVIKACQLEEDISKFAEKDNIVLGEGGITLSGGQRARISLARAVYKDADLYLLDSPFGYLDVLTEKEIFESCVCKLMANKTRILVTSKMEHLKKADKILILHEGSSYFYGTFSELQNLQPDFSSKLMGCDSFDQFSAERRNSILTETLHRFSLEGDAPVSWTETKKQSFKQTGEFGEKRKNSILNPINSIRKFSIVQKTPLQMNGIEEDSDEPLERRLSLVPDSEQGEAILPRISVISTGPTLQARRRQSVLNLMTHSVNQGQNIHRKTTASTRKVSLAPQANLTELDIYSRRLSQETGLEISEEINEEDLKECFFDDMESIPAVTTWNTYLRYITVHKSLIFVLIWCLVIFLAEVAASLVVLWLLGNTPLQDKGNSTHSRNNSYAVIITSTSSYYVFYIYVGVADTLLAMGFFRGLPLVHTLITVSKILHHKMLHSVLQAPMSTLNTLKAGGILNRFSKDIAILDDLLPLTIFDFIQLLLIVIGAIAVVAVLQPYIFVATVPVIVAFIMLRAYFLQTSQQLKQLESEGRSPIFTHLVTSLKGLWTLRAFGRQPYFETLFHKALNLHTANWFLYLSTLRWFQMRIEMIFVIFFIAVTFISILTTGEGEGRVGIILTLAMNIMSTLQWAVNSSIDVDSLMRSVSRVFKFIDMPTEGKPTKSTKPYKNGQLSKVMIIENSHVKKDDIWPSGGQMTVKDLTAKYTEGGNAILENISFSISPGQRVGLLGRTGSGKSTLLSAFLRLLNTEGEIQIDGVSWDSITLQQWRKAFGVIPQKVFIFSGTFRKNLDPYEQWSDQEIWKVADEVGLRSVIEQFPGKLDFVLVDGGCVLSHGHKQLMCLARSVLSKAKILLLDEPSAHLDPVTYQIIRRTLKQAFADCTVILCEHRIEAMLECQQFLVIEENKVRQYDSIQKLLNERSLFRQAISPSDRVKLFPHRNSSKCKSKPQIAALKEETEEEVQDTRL

[6] = test system: diarrhoea caused by the cholera toxin; settings: mouse, in vivo; cited from earlier work
CFTR channel = CFTR channel (Homo sapiens, UniProt P13569); settings: read-out: IC50, concentration to inhibit 50% of the activity of the CFTR channel; cited from earlier work
CFTR channel, sequence (P13569 whole entry): as the sequence (P13569 whole entry) above

mice = settings: at 7 days, 10 mg/kg injection; cited from earlier work
[7] = 1 μM compound added to 1 μM Fsk
[8] = 1 μM compound added to 10 μM Fsk + 30 μM genistein
[9] = 1 μM compound added to 5 μM Fsk

CC1(C(=O)O)N=C2C=CC=CN2C(C)(O)C1O (centres unmarked)
pKa ([1]; aqueous solution, aqueous solution at 25° C., read-out: pKa, carboxylic acid function): ~2 | pKa ([1]; aqueous solution, aqueous solution at 25° C., read-out: pKa, imine function): ~10

CC1(C(=O)O)N=C2C(O)=CC=CN2C(C)(O)C1O (mixture of isomers) [Compound 3, 2-amino-3-hydroxypyridine Adducts]
IC50 [2]: 4000 nM | IC50 [3]: 36000 nM | IC50 [4]: 11000 nM

CCCn1cnc2c1N=CN1C2=NC(C)(C(=O)O)C(O)C1(C)O (mixture of isomers) [Compound 9, 9-propyladenine Adducts]
effect on activation of wild-type CFTR (CHO-WT) [2, 7]: activation | effect on activation of wild-type CFTR (CHO-WT) [2, 8]: activation | Effect [2]: + (In case of a significant increase, the compound was listed as an activator) | EC50 [2]: 2000 nM | effect on wild-type receptors [2]: activator effect | effect on activation of mutated CFTR (CHO-G551D) [3, 7]: no effect | effect on activation of mutated CFTR (CHO-G551D) [3, 8]: activation | effect on G551D mutated receptors [3]: unable to activate | activation of ΔF508 mutated receptor [5]: can activate

C=CCn1cnc2c1N=CN1C2=NC(C)(C(=O)O)C(O)C1(C)O (mixture of isomers) [Compound 10, 9-allyladenine Adducts]
Effect [2]: + (In case of a significant increase, the compound was listed as an activator) | EC50 [2]: 7500 nM

CCC1(C(=O)O)N=C2C=CC=CN2C(O)(CC)C1O (mixture of isomers) [Compound 11]
IC50 [2]: 18000 nM

CCCn1cnc2c1N=CN1C2=N[C@](C)(C(=O)O)[C@@H](O)[C@@]1(C)O (racemic) [Compound 9a]
Effect [2]: + (In case of a significant increase, the compound was listed as an activator) | EC50 [2]: 2000 nM | EC50 [4]: 2000 nM

CCCn1cnc2c1N=CN1C2=N[C@](C)(C(=O)O)[C@H](O)[C@@]1(C)O (racemic) [Compound 9b]
Effect [2]: + (In case of a significant increase, the compound was listed as an activator) | EC50 [2]: 3000 nM

C[C@]1(C(=O)O)N=C2c3nc[nH]c3N=CN2[C@](C)(O)[C@H]1O (single isomer, unassigned) [Compound 5a]
IC50 [2]: 10000 nM

C[C@]1(C(=O)O)N=C2c3nc[nH]c3N=CN2[C@](C)(O)[C@H]1O (single isomer, unassigned) [Compound 5b]
IC50 [2]: 3000 nM

CC1(C(=O)O)N=C2c3ncn([C@H]4CC(O)[C@@H](CO)O4)c3N=CN2C(C)(O)C1O (stereo in doubt) [Compound 1, 2′-deoxyadenosine Adducts]
effect on activation of wild-type CFTR (CHO-WT) [2, 7]: inhibition | effect on activation of wild-type CFTR (CHO-WT) [2, 9]: inhibition | effect on activation of wild-type CFTR (CHO-WT) [2, 8]: inhibition | IC50 [2]: 0.071 nM | effect on wild-type receptors [2]: effectively antagonises the action of the forskolin and genistein activators | effect on activation of mutated CFTR (CHO-G551D) [3, 7]: no effect | effect on activation of mutated CFTR (CHO-G551D) [3, 9]: no effect | effect on activation of mutated CFTR (CHO-G551D) [3, 8]: inhibition | IC50 [3]: 43 nM | effect on G551D mutated receptors [3]: effectively antagonises the action of the forskolin and genistein activators | IC50 [4]: 0.093 nM

Cc1nc2cccc[n+]2c(C)c1O [6 (chlorhydrate)]
IC50 [2]: 7 nM

C[N+](C)(C)CC(=O)O [Betaine, reference compound]
IC50 [2]: 96000 nM

O=C(O)c1ccc(/C=C2\SC(=S)N(c3cccc(C(F)(F)F)c3)C2=O)cc1 [CFTRinh-172]
reduction of diarrhoea caused by the cholera toxin [6]: more than 90% | IC50 (CFTR channel): 200 nM | toxicity in mice (mice): absence of toxicity

CCCN1C=CC2=NC(C)(C(=O)O)C(O)C(C)(O)N2C1=O (centres unmarked) [Compound 2, 1-propylcytosine Adducts]
IC50 [2]: 2 nM | IC50 [3]: 154 nM | IC50 [4]: 2 nM

CCCN1C=CC2=N[C@](C)(C(=O)O)[C@@H](O)[C@@](C)(O)N2C1=O [Compound 2a]
IC50 [2]: 2 nM

CCCN1C=CC2=N[C@](C)(C(=O)O)[C@H](O)[C@@](C)(O)N2C1=O [Compound 2b]
IC50 [2]: 1.5 nM

CC1(C(=O)O)N=C2c3nc[nH]c3N=CN2C(C)(O)C1O (centres unmarked) [Compound 5, Adenine Adducts]
IC50 [2]: 6000 nM | IC50 [3]: 110000 nM | IC50 [4]: 12000 nM

Cc1nc2cccc[n+]2c(C)c1[O-] [Compound 6, 2-aminopyridine Derivative]
IC50 [2]: 5 nM | IC50 [3]: 90 nM | pKa ([1]; read-out: pKa): 4 | IC50 [4]: 5 nM

C[n+]1cn([C@@H]2O[C@H](CO)[C@@H](O)[C@H]2O)c2nc(N)nc([O-])c21 [Compound 8, 7-methylguanosine]
IC50 [2]: 3500 nM | IC50 [3]: 15000 nM | IC50 [4]: 11000 nM

O=C(O)c1nn(Cc2ccc(Cl)cc2Cl)c2ccccc12 [lonidamine]
IC50 (CFTR channel): 58000 nM
